Assay results as given in the OligoGym collection.
These antisense oligonucleotides have a phosphorothioate backbone; sugars and methylation of C are not fully specified.

How the values were obtained:
Conditions in all cases: ASO
[1] = molecular target: SMAD2
[2] = molecular target: MAP2K6
[3] = molecular target: ITGB3
Also: test concentration or dose not given here.

CTCTCCTCCGCCTGCTCC
remaining target (mRNA or protein) (fraction of control) [1]: 0.01

CTCTTCACAACTGGCGGC
remaining target (mRNA or protein) (fraction of control) [1]: 0.16

CTGAGACATTTTCCCCTTTC
remaining target (mRNA or protein) (fraction of control) [2]: 0.91

CTGAGCCAGAAGAGCAGC
remaining target (mRNA or protein) (fraction of control) [1]: 0.18

CTTCACCAGACTTTTCAC
remaining target (mRNA or protein) (fraction of control) [1]: 0.15

CTTCACCCCGAAACCCACCA
remaining target (mRNA or protein) (fraction of control) [2]: 0.34

CTTCCATCCCAGCAGTCT
remaining target (mRNA or protein) (fraction of control) [1]: 0.1

CTTCCGTCCAATGCTATA
remaining target (mRNA or protein) (fraction of control) [3]: 0.96

CTTGCCTTTCGACTGAGACA
remaining target (mRNA or protein) (fraction of control) [2]: 0.58

CTTTAGAACGGATTTTCC
remaining target (mRNA or protein) (fraction of control) [3]: ≥ 1

GAATTTATCTAGTGATGTAT
remaining target (mRNA or protein) (fraction of control) [2]: ≥ 1

GACATTTTCCCCTTTCCTTT
remaining target (mRNA or protein) (fraction of control) [2]: 0.85

GACTCCTGCAATCCTGGC
remaining target (mRNA or protein) (fraction of control) [3]: 0.53

GACTGAGACATTTTCCCCTT
remaining target (mRNA or protein) (fraction of control) [2]: 0.88

GAGACATTTTCCCCTTTCCT
remaining target (mRNA or protein) (fraction of control) [2]: 0.66

GAGACCTGGTTTGTTCAG
remaining target (mRNA or protein) (fraction of control) [1]: 0.46

GAGAGCCTGTGTCCATAC
remaining target (mRNA or protein) (fraction of control) [1]: 0.29

GAGGTGGCGTTTCTGGAA
remaining target (mRNA or protein) (fraction of control) [1]: 0.29

GAGTGGTGATGGCTTTCT
remaining target (mRNA or protein) (fraction of control) [1]: 0.4

GATAGTAAACAGTCCATA
remaining target (mRNA or protein) (fraction of control) [1]: 0.5

GATGCATATTAAATAATTTC
remaining target (mRNA or protein) (fraction of control) [2]: 0.83

GCATCCTTGCCAGTGTCC
remaining target (mRNA or protein) (fraction of control) [3]: 0.47

GCATCTCGTCCGCCTCCC
remaining target (mRNA or protein) (fraction of control) [3]: 0.44

GCCAGCACAGTCACCCAG
remaining target (mRNA or protein) (fraction of control) [3]: ≥ 1

GCCAGGGCTGGCAGCTAAAA
remaining target (mRNA or protein) (fraction of control) [2]: 0.8

GCCATAAAAGGTGACAGTGA
remaining target (mRNA or protein) (fraction of control) [2]: 0.86

GCCCATTGCTGGACATGC
remaining target (mRNA or protein) (fraction of control) [3]: ≥ 1

GCCCCGAAGCCAATCCGC
remaining target (mRNA or protein) (fraction of control) [3]: ≥ 1

GCGGAAGTTCTGTTAGGA
remaining target (mRNA or protein) (fraction of control) [1]: 0.43

GCTCCAGGTCATCTGCCTTC
remaining target (mRNA or protein) (fraction of control) [2]: 0.65

GGAAAGAGTAGTAGGAGA
remaining target (mRNA or protein) (fraction of control) [1]: 0.48

GGAAATCGAAGGATGGCCAA
remaining target (mRNA or protein) (fraction of control) [2]: ≥ 1

GGCAAAACTGGTGTCTCA
remaining target (mRNA or protein) (fraction of control) [1]: 0.26

GGTAACACATTTAGTATT
remaining target (mRNA or protein) (fraction of control) [1]: 0.48

GGTGGGCCGAACCAGAAGCC
remaining target (mRNA or protein) (fraction of control) [2]: ≥ 1

GTGAATTGCCAAATAGACAC
remaining target (mRNA or protein) (fraction of control) [2]: 0.8

GTGATGAGGAGTTTCCAG
remaining target (mRNA or protein) (fraction of control) [3]: 0.98

GTTCTGGATGCTCCACAG
remaining target (mRNA or protein) (fraction of control) [3]: 0.55

GTTTCTCCAACCCTCTGA
remaining target (mRNA or protein) (fraction of control) [1]: 0.2

GTTTCTCTTGACCGATGCAG
remaining target (mRNA or protein) (fraction of control) [2]: 0.55

GTTTCTGTTCCTGGCTATTT
remaining target (mRNA or protein) (fraction of control) [2]: 0.79

TAAACCTAAGCAGAACCT
remaining target (mRNA or protein) (fraction of control) [1]: 0.37

TAACATTGGAGAGTAAAC
remaining target (mRNA or protein) (fraction of control) [1]: 0.54

TATCAAAGAATTACTCACTA
remaining target (mRNA or protein) (fraction of control) [2]: 0.85

TATGTAGGCCGTTCTTTGGA
remaining target (mRNA or protein) (fraction of control) [2]: 0.95

TATTACAGTTTTGAGTGG
remaining target (mRNA or protein) (fraction of control) [1]: 0.52

TATTTTCCCTGTCAATTACT
remaining target (mRNA or protein) (fraction of control) [2]: 0.99

TCAAACTTCTTACACTCC
remaining target (mRNA or protein) (fraction of control) [3]: 0.54

TCACCCTCAAGCTAAGCA
remaining target (mRNA or protein) (fraction of control) [3]: ≥ 1

TCACCGTGTCTCCAATCT
remaining target (mRNA or protein) (fraction of control) [3]: 0.53

TCACTGCTTTCTCACACC
remaining target (mRNA or protein) (fraction of control) [1]: 0.08

TCAGCTTGGGCCTGGCAG
remaining target (mRNA or protein) (fraction of control) [3]: 0.6

TCCTTCGGCCTGAGGGAG
remaining target (mRNA or protein) (fraction of control) [3]: 0.57

TCGACTGAGACATTTTCCCC
remaining target (mRNA or protein) (fraction of control) [2]: 0.8

TCTCACTGAGGTAATGAA
remaining target (mRNA or protein) (fraction of control) [3]: 0.66

TCTCTGATAGTGGTAAGG
remaining target (mRNA or protein) (fraction of control) [1]: 0.49

TCTGTAGCTAGTTTTGCAAC
remaining target (mRNA or protein) (fraction of control) [2]: 0.88

TGCCTTTCGACTGAGACATT
remaining target (mRNA or protein) (fraction of control) [2]: 0.67

TGCTCCTCCAGACCCACC
remaining target (mRNA or protein) (fraction of control) [1]: 0.01

TGGATGGAGAAATTCTTC
remaining target (mRNA or protein) (fraction of control) [3]: 0.64

TGTCACTACCAACATGAC
remaining target (mRNA or protein) (fraction of control) [3]: 0.32

TGTCCCATTTTGCTCTGG
remaining target (mRNA or protein) (fraction of control) [3]: 0.53

TGTTGGTCACTTGTTTCT
remaining target (mRNA or protein) (fraction of control) [1]: 0.58

TTAGTCTCCAAGAATCAGTT
remaining target (mRNA or protein) (fraction of control) [2]: 0.96

TTAGTGTTTTCTGGAATG
remaining target (mRNA or protein) (fraction of control) [1]: 0.48

TTCCTGCCCATTCTGCTC
remaining target (mRNA or protein) (fraction of control) [1]: 0.08

TTCGATGGGATACCTGGA
remaining target (mRNA or protein) (fraction of control) [1]: 0.99

TTGGAGTCTAAATCTCTAGG
remaining target (mRNA or protein) (fraction of control) [2]: ≥ 1

TTTCGACTGAGACATTTTCC
remaining target (mRNA or protein) (fraction of control) [2]: ≥ 1

TTTTCCCCTTTCCTTTGATG
remaining target (mRNA or protein) (fraction of control) [2]: ≥ 1
